Data taken from patent US20250353841A1 (BIOGEN MA INC., priority 2022, published 2025).

What follows are compounds tested on mutant Huntington (HTT) protein (assay: HTT Mutant HTRF iPSC assay (mHTT protein lowering)). Settings: human iPSC derived from a HTT patient with a poly-Q49 mutation.
Format: cell-based
`Cc1cn2nc(-c3cc(F)c4nn(C5CCN(C)CC5)cc4c3)cc(C(F)F)c2n1` [Compound 363, 8-(difluoromethyl)-6-(7-fluoro-2-(1-methylpiperidin-4-yl)-2H-indazol-5-yl)-2-methylimidazo[1,2-b]pyridazine] showed an IC50 of less than 0.1 µM.
Work on `CCc1nc(C)cn2cc(-c3cc(F)c4nc(C5CCN(CC)CC5)cn4c3)cc12` [Compound 175, 6-(1-ethyl-3-methylpyrrolo[1,2-a]pyrazin-7-yl)-2-(1-ethylpiperidin-4-yl)-8-fluoroimidazo[1,2-a]pyridine] yielded an IC50 of 0.1 to 1 µM.
Compound `Cc1cn2nc(-c3cc(F)c4nc(NC(=O)C5CN(C)C5(C)C)cn4c3)cc(C)c2n1` (racemic) [Compound 259, N-(6-(2,8-dimethylimidazo[1,2-b]pyridazin-6-yl)-8-fluoroimidazo[1,2-a]pyridin-2-yl)-1,2,2-trimethylazetidine-3-carboxamide] has an IC50 of 0.1 to 1 µM.
`CCN1CCC(Nc2nc3c(F)cc(-c4cc(C)c5nc(C)cn5n4)cc3o2)CC1C` (stereo not shown) [Compound 471, 6-(2,8-dimethylimidazo[1,2-b]pyridazin-6-yl)-N-(1-ethyl-2-methylpiperidin-4-yl)-4-fluorobenzo[d]oxazol-2-amine] was tested, and the IC50 was less than 0.1 µM.
Work on `Cc1cn2cc(-c3cc(F)c4nc(C5CCNCC5)cn4c3)cc(C)c2n1` [Compound 95, 8-fluoro-2′,8′-dimethyl-2-(piperidin-4-yl)-6,6′-biimidazo[1,2-a]pyridine] yielded an IC50 of 0.1 to 1 µM.
For `CCC(=O)N1CCC(c2cn3cc(-c4cc(C)c5nc(C)cn5n4)cc(F)c3n2)CC1` [Compound 120, 1-[4-[6-(2,8-dimethylimidazo[1,2-b]pyridazin-6-yl)-8-fluoro-imidazo[1,2-a]pyridin-2-yl]-1-piperidyl]propan-1-one], the IC50 was 0.1 to 1 µM.
`Cc1cc(-c2cc(F)c3nc(C4CCNCC4)cn3c2)cc2cn(C)nc12` [Compound 94, 5-(8-fluoro-2-(piperidin-4-yl)imidazo[1,2-a]pyridin-6-yl)-2,7-dimethyl-2H-indazole] was tested, and the IC50 was 0.1 to 1 µM.
`Cc1cn2cc(-c3cc(F)c4nc(C5CCNCC5)cn4c3)cc2c(C)n1` [Compound 31, 6-(1,3-dimethylpyrrolo[1,2-a]pyrazin-7-yl)-8-fluoro-2-(piperidin-4-yl)imidazo[1,2-a]pyridine] was tested, and the IC50 was less than 0.1 µM.
With `N#Cc1cccc2[nH]c(-c3cc(F)c4nc(C5CCNCC5)cn4c3)cc12` [Compound 56, 2-(8-fluoro-2-(piperidin-4-yl)imidazo[1,2-a]pyridin-6-yl)-1H-indole-4-carbonitrile] the IC50 was 1 to 9 µM.
Work on `Cc1cn2nc(-c3cc(F)c4nc([C@H]5C[C@H](CN(C)C)C5)cn4c3)cc(C)c2n1` [Compound 181, 1-((1r,3r)-3-(6-(2,8-dimethylimidazo[1,2-b]pyridazin-6-yl)-8-fluoroimidazo[1,2-a]pyridin-2-yl)cyclobutyl)-N,N-dimethylmethanamine] yielded an IC50 of less than 0.1 µM.
In the case of `Cc1cn2nc(-c3cc(F)c4nn(C5CCN(C)CC5)cc4c3)cc(C)c2n1` [Compound 364, 6-(7-fluoro-2-(1-methylpiperidin-4-yl)-2H-indazol-5-yl)-2,8-dimethylimidazo[1,2-b]pyridazine], the IC50 is reported as 0.1 to 1 µM.
With `Cc1cn2nc(-c3cc(C)c4nc(C5CCNCC5)cn4c3)cc(C)c2n1` [Compound 555, 2,8-dimethyl-6-(8-methyl-2-(piperidin-4-yl)imidazo[1,2-a]pyridin-6-yl)imidazo[1,2-b]pyridazine] the IC50 was 0.1 to 1 µM.
With `Cc1cn2nc(-c3cc(F)c4nc([C@H]5[C@@H]6CN(C7CCC7)C[C@@H]65)cn4c3)cc(C)c2n1` [Compound 211, 6-(2-((1R,5S,6r)-3-cyclobutyl-3-azabicyclo[3.1.0]hexan-6-yl)-8-fluoroimidazo[1,2-a]pyridin-6-yl)-2,8-dimethylimidazo[1,2-b]pyridazine] the IC50 was less than 0.1 µM.
With `Cc1cc2nc(-c3cc(F)c4nc(C5CCNCC5)cn4c3)ccn2n1` [Compound 200, 5-(8-fluoro-2-(piperidin-4-yl)imidazo[1,2-a]pyridin-6-yl)-2-methylpyrazolo[1,5-a]pyrimidine] the IC50 was less than 0.1 µM.
Compound `Cc1cn2nc(-c3cc(F)c4nc(N5CCC(N(C)C)CC5)oc4c3)cc(C(F)F)c2n1` [Compound 495, 1-(6-(8-(difluoromethyl)-2-methylimidazo[1,2-b]pyridazin-6-yl)-4-fluorobenzo[d]oxazol-2-yl)-N,N-dimethylpiperidin-4-amine] has an IC50 of less than 0.1 µM.
`CCc1nc(C)cn2cc(-c3cc(F)c4nc(C5CCNCC5)nn4c3)cc12` [Compound 152] gave an IC50 of less than 0.1 µM.
`Cc1cn2nc(-c3cc(F)c4nc(CC5CNC5)nn4c3)cc(C)c2n1` [Compound 440, 2-(azetidin-3-ylmethyl)-6-(2,8-dimethylimidazo[1,2-b]pyridazin-6-yl)-8-fluoro-[1,2,4]triazolo[1,5-a]pyridine] gave an IC50 of 0.1 to 1 µM.
For `COc1cc(-c2cc(C)c3nc(C)cn3n2)cn2cc(C3CCNCC3)nc12` [Compound 538, 6-(8-methoxy-2-(piperidin-4-yl)imidazo[1,2-a]pyridin-6-yl)-2,8-dimethylimidazo[1,2-b]pyridazine], the IC50 was less than 0.1 µM.
Compound `Cc1cn2nc(-c3cc(F)c4nc(N5CCC(N6CCC6)CC5)oc4c3)cc(C)c2n1` [Compound 494, 2-(4-(azetidin-1-yl)piperidin-1-yl)-6-(2,8-dimethylimidazo[1,2-b]pyridazin-6-yl)-4-fluorobenzo[d]oxazole] has an IC50 of 0.1 to 1 µM.
`Cc1cn2cc(-c3cc(F)c4nc(C5CCNCC5)cn4c3)nc(C)c2n1` [Compound 125, 6-(8-fluoro-2-(piperidin-4-yl)imidazo[1,2-a]pyridin-6-yl)-2,8-dimethylimidazo[1,2-a]pyrazine] showed an IC50 of 0.1 to 1 µM.
`O=c1[nH]ncc2ccc(-c3cc(F)c4nc(C5CCNCC5)cn4c3)cc12` [Compound 58, 7-(8-fluoro-2-(piperidin-4-yl)imidazo[1,2-a]pyridin-6-yl)phthalazin-1(2H)-one] showed an IC50 of 1 to 9 µM.
For `Cc1cn2nc(-c3cc(F)c4nc([C@H]5C[C@]6(CCN(C)C6)C5)cn4c3)cc(C)c2n1` [Compound 203, 6-(8-fluoro-2-((2s,4s)-6-methyl-6-azaspiro[3.4]octan-2-yl)imidazo[1,2-a]pyridin-6-yl)-2,8-dimethylimidazo[1,2-b]pyridazine], the IC50 was less than 0.1 µM.
`Cc1cn2nc(-c3cc(F)c4nc(C5CCN(C)CC5)oc4c3)cc(C)c2n1` [Compound 456, 6-(2,8-dimethylimidazo[1,2-b]pyridazin-6-yl)-4-fluoro-2-(1-methylpiperidin-4-yl)benzo[d]oxazole] gave an IC50 of 0.1 to 1 µM.
Compound `Cc1cn2nc(-c3cc(F)c4nc(NC(=O)C5CCNC6CC65)cn4c3)cc(C)c2n1` (stereo not shown) [Compound 271, N-(6-(2,8-dimethylimidazo[1,2-b]pyridazin-6-yl)-8-fluoroimidazo[1,2-a]pyridin-2-yl)-2-azabicyclo[4.1.0] heptane-5-carboxamide] has an IC50 of less than 0.1 µM.
Work on `Cc1cn2nc(-c3cc(F)c4nc(NC(=O)CC5CCCN5C)nn4c3)cc(C)c2n1` (racemic) [Compound 329, N-(6-(2,8-dimethylimidazo[1,2-b]pyridazin-6-yl)-8-fluoro-[1,2,4]triazolo[1,5-a]pyridin-2-yl)-2-(1-methylpyrrolidin-2-yl)acetamide] yielded an IC50 of 0.1 to 1 µM.
`Cc1cn2nc(-c3cc(F)c4nc(C5CCN(CC(C)(C)C)CC5)nn4c3)cc(C)c2n1` [Compound 436, 6-(2,8-dimethylimidazo[1,2-b]pyridazin-6-yl)-8-fluoro-2-(1-neopentylpiperidin-4-yl)-[1,2,4]triazolo[1,5-a]pyridine] was tested, and the IC50 was 0.1 to 1 µM.
`CCN1CCC(c2cn3cc(-c4cc(C)c5nc(C)cn5n4)cc(F)c3n2)CC1` [Compound 112, 6-(2-(1-ethylpiperidin-4-yl)-8-fluoroimidazo[1,2-a]pyridin-6-yl)-2,8-dimethylimidazo[1,2-b]pyridazine] was tested, and the IC50 was less than 0.1 µM.
With `Cc1cn2nc(-c3cc(F)c4nc([C@H]5C[C@@]6(CCN(C)C6)C5)cn4c3)cc(C)c2n1` [Compound 202, 6-(8-fluoro-2-((2r,4r)-6-methyl-6-azaspiro[3.4]octan-2-yl)imidazo[1,2-a]pyridin-6-yl)-2,8-dimethylimidazo[1,2-b]pyridazine] the IC50 was less than 0.1 µM.
Work on `Cc1cn2nc(-c3cc(F)c4nc(NC(=O)CC5CCCN5)cn4c3)cc(C)c2n1` (stereo not shown) [Compound 273, N-(6-(2,8-dimethylimidazo[1,2-b]pyridazin-6-yl)-8-fluoroimidazo[1,2-a]pyridin-2-yl)-2-(pyrrolidin-2-yl)acetamide] yielded an IC50 of less than 0.1 µM.
Work on `Cn1cc2cc(-c3cc(F)c4nc(C5CCNCC5)cn4c3)cc(F)c2n1` [Compound 93, 7-fluoro-5-(8-fluoro-2-(piperidin-4-yl)imidazo[1,2-a]pyridin-6-yl)-2-methyl-2H-indazole] yielded an IC50 of 0.1 to 1 µM.
In the case of `CCN1CCC(n2nc3cc(-c4cc(C)c5nc(C)cn5n4)cc(F)c3n2)CC1` [Compound 376, 6-(2,8-dimethylimidazo[1,2-b]pyridazin-6-yl)-2-(1-ethyl-4-piperidyl)-4-fluoro-benzotriazole], the IC50 is reported as 0.1 to 1 µM.
In the case of `Cc1cn2nc(-c3cc(F)c4nc([C@H]5CC[C@@]6(CCNC6)CC5)nn4c3)cc(C)c2n1` [Compound 452, (5r,8r)-8-(6-(2,8-dimethylimidazo[1,2-b]pyridazin-6-yl)-8-fluoro-[1,2,4]triazolo[1,5-a]pyridin-2-yl)-2-azaspiro[4.5]decane], the IC50 is reported as 0.1 to 1 µM.
With `Cc1cn2nc(-c3cc(F)c4nc(C5CCNCC5)oc4c3)cc(C)c2n1` [Compound 154, 6-(2,8-dimethylimidazo[1,2-b]pyridazin-6-yl)-4-fluoro-2-(4-piperidyl)-1,3-benzoxazole] the IC50 was less than 0.1 µM.
`CNC12CC(c3cn4cc(-c5cc(C)c6nc(C)cn6n5)cc(F)c4n3)(C1)C2` [Compound 100, 3-(6-(2,8-dimethylimidazo[1,2-b]pyridazin-6-yl)-8-fluoroimidazo[1,2-a]pyridin-2-yl)-N-methylbicyclo[1.1.1] pentan-1-amine] was tested, and the IC50 was less than 0.1 µM.
For `Cc1cn2nc(-c3cc(F)c4[nH]c(C5CC6CCC(C5)N6)nc4c3)cc(C)c2n1` (stereo not shown) [Compound 428, 6-(2-(8-azabicyclo[3.2.1]octan-3-yl)-7-fluoro-1H-benzo[d]imidazol-5-yl)-2,8-dimethylimidazo[1,2-b]pyridazine], the IC50 was less than 0.1 µM.
In the case of `Cc1cn2nc(-c3cc(F)c4nc(N(C)C5CCNC(C)(C)C5)oc4c3)cc(C)c2n1` (single isomer, unassigned) [Compound 508], the IC50 is reported as 0.1 to 1 µM.
`Cc1cc(-c2cc(F)c3nc(C4CCNCC4)cn3c2)nn2cnnc12` [Compound 105, 6-(8-fluoro-2-(piperidin-4-yl)imidazo[1,2-a]pyridin-6-yl)-8-methyl-[1,2,4]triazolo[4,3-b]pyridazine] showed an IC50 of 1 to 9 µM.
